In US20110144578A1, “HYDROPHOBIC THERAPUEUTIC AGENT AND SOLID EMULSIFIER COATING FOR DRUG COATED BALLOON” (priority 2009, published 2011) one finds solubility data, which are given here for one compound.

A short description of series [1]: Solubility enhancement screening in 5% (w/w) excipient solutions in phosphate buffered saline, HPLC of supernatant. It is filed as physicochemical. The conditions noted are these: aqueous buffer, thermodynamic from solid, 37° C., n = 3, read-out: Zotarolimus Solubility. The method, then:
Emulsifier candidates can be screened by measuring the degree to which they can enhance the solubility of the therapeutic agent. One way to accomplish this is to make 5% (w/w) solutions of the emulsifiers of interest in a phosphate buffered saline solution. An excess amount of drug is added to the solution and incubated with stirring at 37° C. After centrifugation to precipitate all solids, the supernatant is assayed by HPLC for the drug concentration.

A short description of another series: physchem. Particulars: water. The text has this:
Using the Stokes-Einstein equation as a simple model, diffusion coefficients are approximately proportional to the molecular weight of a species raised to the −⅓ power. Thus, individual molecules or micelles, which are low in molecular weight, tend to diffuse much faster than microspheres or nanoparticles, which are much higher in molecular weight.

SMILES strings stand for the structures. Values after ≈ are worked out from the molar mass of the structure shown.

On to `CO[C@H]1C[C@@H]2CC[C@@H](C)[C@@](O)(O2)C(=O)C(=O)N2CCCC[C@H]2C(=O)O[C@H]([C@H](C)C[C@@H]2CC[C@H](n3cnnn3)[C@H](OC)C2)CC(=O)[C@H](C)/C=C(\C)[C@@H](O)[C@@H](OC)C(=O)[C@H](C)C[C@H](C)/C=C/C=C/C=C/1C` [Zotarolimus, zotarolimus], for which the solubility in series [1] is 0.53 µg/mL; in the series “physchem” it was 0.5 µg/mL (≈ 0.517 µM).
